# Experimental data taken from patent US11440905B2, “Biheterocyclic compound” (SUMITOMO PHARMA CO., LTD., priority 2016, dated 2022).
# Experiments:
# [1] = tested on: dry eye-model rat (exorbital lacrimal gland excised); experiment: Drug evaluation for corneal disorder in dry eye rat model (Test 5); type: in vivo; settings: 0.01% to 1% ophthalmic solutions, 1 μL per shot, twice per day, 4 weeks; ** denotes p<0.01
# Description: Drug Evaluation for Corneal Disorder in Dry Eye Rat Model
# For the corneal disorder in the model rat whose exorbital lacrimal gland is excised, the drug effect was evaluated about hyaluronic acid (HA) which is an existing drug, and the present compound.
# Male SD rat was anesthetized with inhalational isoflurane, and the exorbital lacrimal gland thereof was excised to prepare a dry eye-model rat (the conditions to prepare the dry eye-model rat can be changed as necessary, for example, by combining the excision of exorbital lacrimal gland with the medication of streptozotocin or the like). Three weeks after the operation, each vehicle for eye drop (typically phosphate-buffered saline (PBS)), and 0.01%, 0.1%, and 1% the ophthalmic solutions of the present compound (Example 19) were administered to the rat in an awareness at 1 μL per shot, twice per day, for 4 weeks.
# The scoring of disorder extent in the site of corneal disorder was evaluated with 4 grades of the evaluation criteria of 0-3 according to Test 3.
# The statistical significance for the drug effect was evaluated by nonparametric Tukey's multiple comparison test, in which the result of each test group was compared with that of the vehicle-administration group (PBS) in which the rat's exorbital lacrimal gland is excised.
# [2] = molecular target: T1, mouse semaphorin 3A (Sema3A) (Mus musculus, UniProt O08665); experiment: Inhibitory activity for the collapse activity caused by Sema3A (growth cone collapse assay, Test 1); type: cell-based; settings: chick embryo dorsal root ganglion, 3 units/mL mouse Sema3A, smaller value = more potent inhibition, read-out: residual ratio (%) of Sema3A activity (collapse assay)
# T1 sequence (O08665 21-772): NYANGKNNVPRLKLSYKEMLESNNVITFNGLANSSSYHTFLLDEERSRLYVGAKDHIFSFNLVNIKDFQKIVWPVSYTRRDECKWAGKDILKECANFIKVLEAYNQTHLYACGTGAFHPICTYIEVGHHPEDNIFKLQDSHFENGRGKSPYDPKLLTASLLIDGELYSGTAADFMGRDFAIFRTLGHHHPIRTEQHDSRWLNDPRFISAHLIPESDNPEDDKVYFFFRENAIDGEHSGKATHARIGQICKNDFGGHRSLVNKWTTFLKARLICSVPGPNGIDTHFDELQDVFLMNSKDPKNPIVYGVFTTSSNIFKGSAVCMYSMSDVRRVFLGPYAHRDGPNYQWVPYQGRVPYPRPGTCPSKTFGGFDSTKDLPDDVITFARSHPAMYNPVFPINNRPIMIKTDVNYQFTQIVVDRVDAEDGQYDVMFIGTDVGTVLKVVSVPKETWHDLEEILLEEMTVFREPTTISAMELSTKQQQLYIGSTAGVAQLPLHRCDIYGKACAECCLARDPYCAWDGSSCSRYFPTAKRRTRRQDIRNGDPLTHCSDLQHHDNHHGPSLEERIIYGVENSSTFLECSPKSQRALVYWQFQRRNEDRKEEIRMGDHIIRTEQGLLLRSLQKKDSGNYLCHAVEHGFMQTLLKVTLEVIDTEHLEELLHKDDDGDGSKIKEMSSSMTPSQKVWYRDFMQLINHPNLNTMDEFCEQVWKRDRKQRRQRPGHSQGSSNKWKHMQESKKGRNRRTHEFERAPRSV
# Description: Inhibitory Activity for the Collapse Activity Caused by Sema3A
# 96 well-plate (SUMITOMO BAKELITE CO., LTD.) which was beforehand coated with polylysine was further coated with laminin (10 μL laminin, at room temperature, for 1 hour). To each well was added 100 μL of a medium (F12 medium containing 10% fetal bovine serum, 20 ng/mL NGF, 100 unit/mL penicillin, and 100 μg/mL streptomycin). Dorsal root ganglion harvested from 7-8 day-old chick embryo was inoculated thereto, and the culture medium was cultivated under the condition of 5% CO2 and 37° C. for 16-20 hours. And then, each test compound in various concentrations was added to the medium, each test medium was cultivated for 30 minutes, 3 units/mL mouse semaphorin 3A (Sema3A) was added to each medium, and then each test medium was cultivated for more 30 minutes. Then, glutaraldehyde was added to the medium, in which the final concentration of glutaraldehyde was 1%. The medium was left to stand at room temperature for 15 minutes to make the tissue fragment fixed, and the ratio of the retracted growth cone was measured under a microscope.
smiles,measurement,setting,value
"Cn1cc(-c2coc3cc(O)c(O)c(C(=O)OCC(=O)N[C@@H](CCC(=O)O)C(=O)O)c3c2=O)c(=O)c2cc(O)c(O)cc21 [Example 19, N-[({[3-(6,7-Dihydroxy-1-methyl-4-oxo-1,4-dihydroquinolin-3-yl)-6,7-dihydroxy-4-oxo-4H-chromen-5-yl]carbonyl}oxy)acetyl]-L-glutamic acid]",improvement for corneal disorder (fluorescein staining score 0-3) vs vehicle-administration group (PBS),[1],marked improvement
same,remaining activity at 1 µM,[2]; 1 μM test compound,4.2%
same,remaining activity at 3 µM,[2]; 3 μM test compound,0%
